Patent publication US10414811B2, “Protease-resistant lipidated GLP-1 analogs” (MEDIMMUNE LIMITED, priority 2015, dated 2019)
Where two headings read alike, the source gives them in different places. Numbered stars: 1 amine (or outer) side, 2 acyl side, 3 side chain; on linkers, the order of the positions; unused ones are H or OH. Square brackets hold non-standard residues; d marks the D form. Side chains are listed from the residue outwards. Peptide text beside a SMILES is read from it. * marks the point of attachment. C18 diacid = O=C(O)CCCCCCCCCCCCCCCCC(=O)*; γGlu = O=C(O)[C@H](CCC(=O)[*:2])N[*:1]; αMeF = C[C@](N)(Cc1ccccc1)C(=O)O; αMeK = C[C@](N)(CCCCN)C(=O)O; Lauroyl = CCCCCCCCCCCC(=O)*; αMeS = C[C@](N)(CO)C(=O)O; AEEA = NCCOCCOCC(=O)O; Aib = CC(C)(N)C(=O)O

Assays:
Assay type in all cases: cell-based
[1] = target: T1, human glucose-dependent insulinotropic peptide receptor (GIPR) (Homo sapiens, UniProt P48546); test: cAMP assay, human GIPR cells
T1 construct: expressed in transfected cells
T1 sequence (P48546 22-466): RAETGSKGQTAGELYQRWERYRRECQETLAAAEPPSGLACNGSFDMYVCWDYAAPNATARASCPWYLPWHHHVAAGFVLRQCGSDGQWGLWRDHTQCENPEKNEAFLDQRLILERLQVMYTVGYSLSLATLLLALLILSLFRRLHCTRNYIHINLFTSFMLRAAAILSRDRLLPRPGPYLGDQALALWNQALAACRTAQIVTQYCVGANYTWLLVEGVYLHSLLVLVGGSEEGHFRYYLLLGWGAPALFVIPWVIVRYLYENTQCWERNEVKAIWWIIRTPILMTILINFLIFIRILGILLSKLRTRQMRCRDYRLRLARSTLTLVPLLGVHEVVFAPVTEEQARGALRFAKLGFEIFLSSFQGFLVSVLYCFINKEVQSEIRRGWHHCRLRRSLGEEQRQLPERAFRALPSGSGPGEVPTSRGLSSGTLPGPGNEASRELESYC
Method in brief: (§1)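 Peptide-stimulated cAMP measured by two-step HTRF after a 30 min room-temperature incubation with receptor-expressing cells (hGLP-1R, hGIPR at 1×10^5 cells/ml; hGCGR at 2×10^5 cells/ml). Duplicate dilutions; EC50 from 4-parameter logistic fit of % Delta F.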

[2] = target: T2, GLP-1R (INS1e assay) (Rattus norvegicus, UniProt P32301); test: INS1e assay, cAMP activity at GLP-1R
T2 construct: endogenous in cells; host or cells: INS-1E cells
T2 sequence (P32301 22-463): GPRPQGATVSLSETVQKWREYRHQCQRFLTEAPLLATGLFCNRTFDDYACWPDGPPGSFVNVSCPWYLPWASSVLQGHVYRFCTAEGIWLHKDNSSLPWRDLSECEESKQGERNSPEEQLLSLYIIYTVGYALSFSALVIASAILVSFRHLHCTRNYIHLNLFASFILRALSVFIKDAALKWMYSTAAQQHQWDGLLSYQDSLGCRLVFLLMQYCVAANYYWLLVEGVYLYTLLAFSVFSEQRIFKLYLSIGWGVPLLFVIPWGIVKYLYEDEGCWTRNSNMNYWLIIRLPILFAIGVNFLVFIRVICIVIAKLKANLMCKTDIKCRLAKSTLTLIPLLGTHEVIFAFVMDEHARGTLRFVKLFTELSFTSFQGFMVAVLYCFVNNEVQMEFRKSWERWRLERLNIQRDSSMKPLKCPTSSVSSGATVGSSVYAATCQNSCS
Method in brief: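 It pairs cAMP-d2 acceptor with anti-cAMP cryptate donor, both prepared 1/20 in conjugate/lysis buffer, applied as a two-step protocol.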

[3] = target: T3, human GLP-1 receptor (GLP-1R) (Homo sapiens, UniProt P43220); test: cAMP assay, human GLP-1R cells
T3 construct: expressed in transfected cells
T3 sequence (P43220 24-463): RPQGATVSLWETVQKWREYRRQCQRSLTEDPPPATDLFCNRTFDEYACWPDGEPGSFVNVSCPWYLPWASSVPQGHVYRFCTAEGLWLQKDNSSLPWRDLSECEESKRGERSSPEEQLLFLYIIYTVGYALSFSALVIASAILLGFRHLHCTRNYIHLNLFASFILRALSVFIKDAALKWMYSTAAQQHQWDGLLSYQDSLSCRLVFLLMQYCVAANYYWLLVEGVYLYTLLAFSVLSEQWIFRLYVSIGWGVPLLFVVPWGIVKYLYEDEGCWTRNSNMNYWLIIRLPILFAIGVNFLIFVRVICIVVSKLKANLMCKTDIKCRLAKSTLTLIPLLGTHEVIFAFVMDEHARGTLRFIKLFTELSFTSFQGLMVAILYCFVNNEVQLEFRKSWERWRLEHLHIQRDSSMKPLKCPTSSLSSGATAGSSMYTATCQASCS
Method in brief: as §1

[4] = target: T4, human glucagon receptor (GCGR) (Homo sapiens, UniProt P47871); test: cAMP assay, human GCGR cells
T4 construct: expressed in transfected cells
T4 sequence (P47871 26-477): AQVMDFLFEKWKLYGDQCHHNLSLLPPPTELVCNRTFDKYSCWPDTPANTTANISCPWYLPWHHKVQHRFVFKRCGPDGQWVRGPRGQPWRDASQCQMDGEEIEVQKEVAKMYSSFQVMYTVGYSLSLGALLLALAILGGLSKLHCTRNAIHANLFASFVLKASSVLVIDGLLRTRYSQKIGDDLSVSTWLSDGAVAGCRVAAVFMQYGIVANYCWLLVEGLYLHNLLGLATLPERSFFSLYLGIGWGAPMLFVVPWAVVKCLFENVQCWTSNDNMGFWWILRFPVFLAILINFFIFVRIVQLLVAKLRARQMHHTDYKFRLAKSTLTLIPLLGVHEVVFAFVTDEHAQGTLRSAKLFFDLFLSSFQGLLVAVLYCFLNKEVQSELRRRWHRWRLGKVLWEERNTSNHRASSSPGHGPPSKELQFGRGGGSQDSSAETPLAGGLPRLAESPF
Method in brief: as §1

[5] = cAMP assay, first determination (n1), read-out: Primary assay EC50 GIP-R (n1)
[6] = cAMP assay, second determination (n2), read-out: Primary assay EC50 GIP-R (n2)
[7] = mono-lipidated peptides, mean of n1 and n2, read-out: INS1e assay EC50 Mean pM GLP-1R
[8] = mono-lipidated peptides, replicate n1, read-out: INS1e assay EC50 GLP-1R n1
[9] = mono-lipidated peptides, replicate n2, read-out: INS1e assay EC50 GLP-1R n2
[10] = cAMP assay, first determination (n1), read-out: Primary assay EC50 GLP-1R n1
[11] = cAMP assay, second determination (n2), read-out: Primary assay EC50 GLP-1R n2
[12] = mean of n1 and n2, read-out: Mean pM GLP-1R
[13] = cAMP assay, first determination (n1), read-out: Primary assay EC50 Gluc-R (n1)
[14] = cAMP assay, second determination (n2), read-out: Primary assay EC50 Gluc-R (n2)

Row | SMILES | EC50 [1, 5] [nM] | EC50 [1, 6] [nM] | EC50 [2, 7] [pM] | EC50 [2, 8] [pM] | EC50 [2, 9] [pM] | EC50 [3, 10] [pM] | EC50 [3, 11] [pM] | EC50 [3, 12] [pM] | EC50 [4, 13] [nM] | EC50 [4, 14] [nM] | EC50 ([1]; tris-lipidated peptides, first replicate, read-out: Primary assay EC50 GIP-R (n1)) [nM] | EC50 ([2]; tris-lipidated peptides, mean of n1 and n2, read-out: INS1e assay EC50 Mean pM GLP-1R) [pM] | EC50 ([2]; tris-lipidated peptides, replicate n1, read-out: INS1e assay EC50 GLP-1R n1) [pM] | EC50 ([2]; tris-lipidated peptides, replicate n2, read-out: INS1e assay EC50 GLP-1R n2) [pM] | EC50 ([3]; tris-lipidated peptides, mean of n1 and n2, read-out: Primary assay EC50 Mean pM GLP-1R) [pM] | EC50 ([3]; tris-lipidated peptides, replicate n1, read-out: Primary assay EC50 GLP-1R n1) [pM] | EC50 ([3]; tris-lipidated peptides, replicate n2, read-out: Primary assay EC50 GLP-1R n2) [pM] | EC50 ([4]; tris-lipidated peptides, first replicate, read-out: Primary assay EC50 Gluc-R (n1)) [nM]
1 | CC[C@H](C)[C@H](NC(=O)[C@](C)(Cc1ccccc1)NC(=O)[C@H](CCC(=O)O)NC(=O)[C@H](CCCCNC(=O)COCCOCCNC(=O)COCCOCCNC(=O)CC[C@H](NC(=O)CCCCCCCCCCCCCCCCC(=O)O)C(=O)O)NC(=O)[C@H](C)NC(=O)[C@H](C)NC(=O)[C@H](CCC(=O)O)NC(=O)CNC(=O)[C@H](CCC(=O)O)NC(=O)[C@H](CC(C)C)NC(=O)[C@](C)(Cc1ccccc1)NC(=O)[C@H](CO)NC(=O)[C@](C)(CO)NC(=O)[C@@H](NC(=O)[C@H](CC(=O)O)NC(=O)[C@H](CO)NC(=O)[C@@H](NC(=O)[C@H](Cc1ccccc1)NC(=O)[C@H](CO)NC(=O)CNC(=O)[C@H](CCC(=O)O)NC(=O)C(C)(C)NC(=O)[C@@H](N)Cc1c[nH]cn1)[C@@H](C)O)C(C)C)C(=O)N[C@@H](C)C(=O)N[C@@](C)(Cc1ccccc1)C(=O)N[C@H](C(=O)N[C@H](C(=O)N[C@@](C)(CCCCN)C(=O)NCC(=O)NCC(N)=O)C(C)C)C(C)C [compound 45] | ≥ 26 | ≥ 26 | 94600 | 76100 | 113000 | 3800 | 3300 | 3560 | ≥ 26 | ≥ 26 | – | – | – | – | – | – | – | –
2 | CC[C@H](C)[C@H](NC(=O)[C@](C)(Cc1ccccc1)NC(=O)[C@H](CCC(=O)O)NC(=O)[C@](C)(CCCCN)NC(=O)[C@H](C)NC(=O)[C@H](C)NC(=O)[C@H](CCC(=O)O)NC(=O)CNC(=O)[C@H](CCC(=O)O)NC(=O)[C@H](CC(C)C)NC(=O)[C@](C)(Cc1ccccc1)NC(=O)[C@H](CO)NC(=O)[C@](C)(CO)NC(=O)[C@H](CCCCNC(=O)COCCOCCNC(=O)COCCOCCNC(=O)CC[C@H](NC(=O)CCCCCCCCCCCCCCCCC(=O)O)C(=O)O)NC(=O)[C@H](CC(=O)O)NC(=O)[C@H](CO)NC(=O)[C@@H](NC(=O)[C@](C)(Cc1ccccc1)NC(=O)[C@H](CO)NC(=O)CNC(=O)[C@H](CCC(=O)O)NC(=O)C(C)(C)NC(=O)[C@@H](N)Cc1c[nH]cn1)[C@@H](C)O)C(=O)N[C@@H](C)C(=O)N[C@@](C)(Cc1ccccc1)C(=O)N[C@H](C(=O)N[C@H](C(=O)N[C@@](C)(CCCCN)C(=O)NCC(=O)NCC(N)=O)C(C)C)C(C)C [compound 119] (H-H[Aib]EGS[αMeF]TSDK([AEEA-AEEA-γGlu-C18 diacid])[αMeS]S[αMeF]LEGEAA[αMeK]E[αMeF]IA[αMeF]VV[αMeK]GG-NH2; N-terminus assumed) | ≥ 25 | ≥ 25.2 | 2080 | 2710 | 1450 | 18 | 15.7 | 17 | ≥ 25 | ≥ 25.2 | – | – | – | – | – | – | – | –
3 | CC[C@H](C)[C@H](NC(=O)[C@](C)(Cc1ccccc1)NC(=O)[C@H](CCC(=O)O)NC(=O)[C@H](CCC(=O)O)NC(=O)[C@H](C)NC(=O)[C@H](C)NC(=O)[C@H](CCC(=O)O)NC(=O)CNC(=O)[C@H](CCC(=O)O)NC(=O)[C@H](CC(C)C)NC(=O)[C@](C)(Cc1ccccc1)NC(=O)[C@H](CO)NC(=O)[C@](C)(CO)NC(=O)[C@@H](NC(=O)[C@H](CC(=O)O)NC(=O)[C@H](CO)NC(=O)[C@@H](NC(=O)[C@](C)(Cc1ccccc1)NC(=O)[C@H](CO)NC(=O)CNC(=O)[C@H](CCC(=O)O)NC(=O)C(C)(C)NC(=O)[C@@H](N)Cc1c[nH]cn1)[C@@H](C)O)C(C)C)C(=O)N[C@@H](C)C(=O)N[C@@](C)(Cc1ccccc1)C(=O)N[C@H](C(=O)N[C@H](C(=O)N[C@@](C)(CCCCN)C(=O)NCC(=O)NCC(N)=O)C(C)C)C(C)C [compound 42] (H-H[Aib]EGS[αMeF]TSDV[αMeS]S[αMeF]LEGEAAEE[αMeF]IA[αMeF]VV[αMeK]GG-NH2) | ≥ 31 | ≥ 31 | 187 | 207 | 167 | 6.9 | 11 | 8.7 | ≥ 31 | ≥ 31 | – | – | – | – | – | – | – | –
4 | CCCCCCCCCCCC(=O)N[C@@H](CCC(=O)NCCOCCOCC(=O)NCCOCCOCC(=O)NCCCC[C@H](NC(=O)[C@H](CO)NC(=O)[C@](C)(CO)NC(=O)[C@@H](NC(=O)[C@H](CC(=O)O)NC(=O)[C@H](CO)NC(=O)[C@@H](NC(=O)[C@](C)(Cc1ccccc1)NC(=O)[C@H](CO)NC(=O)CNC(=O)[C@H](CCC(=O)O)NC(=O)C(C)(C)NC(=O)[C@@H](N)Cc1c[nH]cn1)[C@@H](C)O)C(C)C)C(=O)N[C@@H](CC(C)C)C(=O)N[C@@H](CCC(=O)O)C(=O)NCC(=O)N[C@@H](CCC(=O)O)C(=O)N[C@@H](C)C(=O)N[C@@H](C)C(=O)N[C@@](C)(CCCCN)C(=O)N[C@@H](CCCCNC(=O)COCCOCCNC(=O)COCCOCCNC(=O)CC[C@H](NC(=O)CCCCCCCCCCC)C(=O)O)C(=O)N[C@@H](Cc1ccccc1)C(=O)N[C@H](C(=O)N[C@@H](C)C(=O)N[C@@H](Cc1ccccc1)C(=O)N[C@@H](CCCCNC(=O)COCCOCCNC(=O)COCCOCCNC(=O)CC[C@H](NC(=O)CCCCCCCCCCC)C(=O)O)C(=O)N[C@H](C(=O)N[C@@H](CCC(=O)O)C(=O)NCC(=O)NCC(N)=O)C(C)C)[C@@H](C)CC)C(=O)O [compound 482] (H-H[Aib]EGS[αMeF]TSDV[αMeS]SK([AEEA-AEEA-γGlu-Lauroyl])LEGEAA[αMeK]K([AEEA-AEEA-γGlu-Lauroyl])FIAFK([AEEA-AEEA-γGlu-Lauroyl])VEGG-NH2) | – | – | – | – | – | – | – | – | – | – | 20 | 5860 | 8570 | 3150 | 36.3 | 28.3 | 44.2 | 20
5 | CC[C@H](C)[C@H](NC(=O)[C@H](Cc1ccccc1)NC(=O)[C@H](CCC(=O)O)NC(=O)[C@H](CCC(=O)O)NC(=O)[C@H](C)NC(=O)[C@H](C)NC(=O)[C@H](CCC(=O)O)NC(=O)CNC(=O)[C@H](CCC(=O)O)NC(=O)[C@H](CC(C)C)NC(=O)[C@](C)(Cc1ccccc1)NC(=O)[C@H](CO)NC(=O)[C@](C)(CO)NC(=O)[C@@H](NC(=O)[C@H](CC(=O)O)NC(=O)[C@H](CO)NC(=O)[C@@H](NC(=O)[C@](C)(Cc1ccccc1)NC(=O)[C@H](CO)NC(=O)CNC(=O)[C@H](CCC(=O)O)NC(=O)C(C)(C)NC(=O)[C@@H](N)Cc1c[nH]cn1)[C@@H](C)O)C(C)C)C(=O)N[C@@H](CCCCNC(=O)COCCOCCNC(=O)COCCOCCNC(=O)CC[C@H](NC(=O)CCCCCCCCCCCCCCCCC(=O)O)C(=O)O)C(=O)N[C@@H](Cc1c[nH]c2ccccc12)C(=O)N[C@H](C(=O)N[C@H](C(=O)N[C@@H](CCC(=O)O)C(=O)NCC(=O)NCC(N)=O)C(C)C)C(C)C [compound 66] (H-H[Aib]EGS[αMeF]TSDV[αMeS]S[αMeF]LEGEAAEEFIK([AEEA-AEEA-γGlu-C18 diacid])WVVEGG-NH2; N-terminus assumed) | ≥ 25.1 | ≥ 25.1 | 42200 | 45600 | 38800 | 203 | 97.9 | 150 | ≥ 25.1 | ≥ 25.1 | – | – | – | – | – | – | – | –
